Where “and” joins values, the source holds several entries; their conditions need not be identical. Identical values can stand only once.

The first series is described as follows: solvent given as SMILES. The settings on record: in CCOCC.
With `CCCCCCC(CCCCCC)n1c(=O)c2c3ccc4cccc5c6cccc7ccc(c2c1=O)c(c76)c3c45`, the emission maximum came out at 495 nm.

The series is the same for the next values; noted with them: in CN(C)C=O.
On to `Cc1ccc(-c2cc(-c3ccccc3)c(C#N)c(=S)[nH]2)cc1`, for which the emission maximum was found to be 502 nm.

`CCN(CC)c1ccc2cc(/C=C/C3=CC(/C=C/c4cc5ccc(N(CC)CC)cc5oc4=O)=[O+][B-](F)(F)O3)c(=O)oc2c1` had an emission maximum of 729 nm.

The series is the same for the next values; noted with them: in CO.
The compound `CCOC(=O)COc1ccc(/C=C/C2=C3c4ccccc4C(c4ccc[nH]4)=[N+]3[B-](F)(F)n3ccc(C)c32)cc1` yielded an emission maximum of 624 nm.

In turn, `COc1ccc(-c2ccc3c(c2)nnn3C[C@H](N)C(=O)O)cc1` had an emission maximum of 418 nm.

Still in this series, the particulars now being: in CS(C)=O.
Consider `Cc1ccc(-c2cc(/C=C/c3ccc(N(c4ccccc4)c4ccccc4)cc3)c(C#N)c(N3CCCCC3)c2)cc1`, for which the emission maximum was 523 nm. The same measure, in the same setting: as for `CCCCCCC(CCCCCC)n1c(=O)c2c3ccc4cccc5c6cccc7ccc(c2c1=O)c(c76)c3c45`, the figure is 534 nm.

In turn, `CCN(CC)c1ccc2cc(/C=C/C3=CC(/C=C/c4cc5ccc(N(CC)CC)cc5oc4=O)=[O+][B-](F)(F)O3)c(=O)oc2c1` registered an emission maximum of 741 nm.

Still in this series, the particulars now being: in Cc1ccccc1.
In turn, `COCCC1=Cc2nc1ccc1[nH]c(cc1CCOC)c1nc(c(OC(C)=O)cc3[nH]c2cc3CCOC)C(CCOC)=C1` yielded an emission maximum of 652 nm. In turn, `CCOC(=O)COc1ccc(/C=C/C2=C3c4ccccc4C(c4ccc[nH]4)=[N+]3[B-](F)(F)n3ccc(C)c32)cc1` registered an emission maximum of 637 nm. Still for that read-out and setting: in the case of `N#Cc1c(-n2c3ccccc3c3ccccc32)c(-n2c3ccccc3c3ccccc32)c(-n2c3ccccc3c3ccccc32)c(-n2c3ccccc3c3ccccc32)c1-n1c2ccccc2c2ccccc21` it was 464 nm and 470 nm. The same measure, in the same setting: in the case of `CC(C)(C(=O)c1ccc(N2c3ccccc3C(C)(C)c3ccccc32)cc1)C(=O)c1ccc(N2c3ccccc3C(C)(C)c3ccccc32)cc1` it was 506 nm; in that of `Cc1ccc(-c2c3ccc([nH]3)c3nc(c(-c4ccc([N+](=O)[O-])cc4)c4ccc([nH]4)c4ccc([nH]4)c(-c4ccc(C)cc4)c4ccc2o4)C=C3)cc1`, 737 nm; in that of `CCCCCCC(CCCCCC)n1c(=O)c2c3ccc4cccc5c6cccc7ccc(c2c1=O)c(c76)c3c45`, 491 nm. On the same count and under the same terms, in the case of `CCCCCCCCCCCCC(CCCCCCCCCC)Cn1c2cc(/C=C/c3nc4ccccc4s3)c3cccc4c5cccc6c(/C=C/c7nc8ccccc8s7)cc1c(c65)c2c34` (stereo not drawn) it was 582 nm; in that of `CCN(CC)c1ccc2cc(/C=C/C3=CC(/C=C/c4cc5ccc(N(CC)CC)cc5oc4=O)=[O+][B-](F)(F)O3)c(=O)oc2c1`, 626 nm.

Still in this series, the particulars now being: in ClC(Cl)(Cl)Cl.
In turn, `Cc1ccc(-c2cc(-c3ccccc3)c(C#N)c(=S)[nH]2)cc1` returned an emission maximum of 508 nm. On the same count and under the same terms, as for `CCCCCCC(CCCCCC)n1c(=O)c2c3ccc4cccc5c6cccc7ccc(c2c1=O)c(c76)c3c45`, the figure is 482 nm.

The same series, now with this note: in ClC(Cl)Cl.
Consider `N#Cc1nc(N(Cc2ccc(I)cc2)Cc2ccc(I)cc2)c(C#N)nc1N(Cc1ccc(I)cc1)Cc1ccc(I)cc1`, for which the emission maximum is 574 nm. The same measure, in the same setting: as for `CCCCCCC(CCCCCC)n1c(=O)c2c3ccc4cccc5c6cccc7ccc(c2c1=O)c(c76)c3c45`, the figure is 522 nm.

Regarding `Clc1ccc(-c2nc(-c3ccccc3)c(N(c3ccccc3)c3ccccc3)s2)cc1`, the emission maximum came to 474 nm. On the same count and under the same terms, in the case of `CCN(CC)c1ccc2cc(/C=C/C3=CC(/C=C/c4cc5ccc(N(CC)CC)cc5oc4=O)=[O+][B-](F)(F)O3)c(=O)oc2c1` it was 669 nm; in that of `CC(C)(C)NC(=O)c1cc2ccc3cccc4ccc(c1C(=O)NC(C)(C)C)c2c34`, 392 nm.

The same series, now with this note: in ClCCl.
In the case of `CCOC(=O)COc1ccc(/C=C/C2=C3c4ccccc4C(c4ccc[nH]4)=[N+]3[B-](F)(F)n3ccc(C)c32)cc1`, the emission maximum is 631 nm. Consider `N#Cc1c(-n2c3ccccc3c3ccccc32)c(-n2c3ccccc3c3ccccc32)c(-n2c3ccccc3c3ccccc32)c(-n2c3ccccc3c3ccccc32)c1-n1c2ccccc2c2ccccc21`, for which the emission maximum is recorded as 497.22 nm. Same read-out and setting: as for `CN(C)c1ccc(C2=CC3=C(c4ccc([N+](=O)[O-])cc4)[C@H]4c5ccccc5[C@]3(S2)c2ccccc24)cc1`, the figure is 625 nm; as for `Clc1ncc(-c2c3ccccc3c(-c3cnc(Cl)nc3)c3ccccc23)cn1`, 421 nm. Same read-out and setting: in the case of `CCCCn1c2ccc(-c3ccc4c(c3)c3c5c(ccc6ccccc65)ccc3n4CCCC)cc2c2c3c(ccc4ccccc43)ccc21` it was 437 nm. Still for that read-out and setting: in the case of `CCCCCCn1c2c(c3ccccc31)-c1c(c3ccccc3n1CCCCCC)-c1c(c3ccccc3n1CCCCCC)-c1c-2c2ccccc2n1CCCCCC` it was 352 nm. For the compound `C(=C\c1ccc(-c2ccncc2)cc1)/c1ccc(-c2ccncc2)cc1`, the emission maximum was 387 nm. Same read-out and setting: as for `Cc1cccc2nc(-c3cc(=O)c(OCc4ccccc4)co3)c(NC3CCCCC3)n12`, the figure is 476 nm; as for `CCCCCCCCCCCCC(CCCCCCCCCC)Cn1c2cc(/C=C/c3nc4ccccc4s3)c3cccc4c5cccc6c(/C=C/c7nc8ccccc8s7)cc1c(c65)c2c34` (stereo not drawn), 585 nm; as for `CCN(CC)c1ccc2cc(/C=C/C3=CC(/C=C/c4cc5ccc(N(CC)CC)cc5oc4=O)=[O+][B-](F)(F)O3)c(=O)oc2c1`, 705 nm.

As to `O=P1(c2ccccc2)c2cccc3c4c5ccccc5c5ccccc5c4c4ccc1n4c23` (stereo not drawn), the emission maximum came to 490 nm.

Compound `Cc1cc(O)c(C(=O)/C=C/c2ccc(Cl)cc2Cl)c(=O)o1` yielded an emission maximum of 472 nm.

Staying with this series, now noted: in O.
On to `CC1(C)C2=C3C=C4C5=[N+](CCC4OC3CCN2c2ccc(CC(=O)NCCCCCCO)cc21)c1ccc(S(=O)(=O)[O-])cc1C5(C)C` (stereo not drawn), for which the emission maximum was determined as 572 nm. Same read-out and setting: as for `O=C(O)CCCCCn1c2ccccc2c(=O)c2cc(S(=O)(=O)O)ccc21`, the figure is 428 nm; as for `CC[N+]1(CC)CN2C(=N1)C(C(=O)O)=Cc1c(OC)ccc(OC)c12`, 515 nm.

The series is the same for the next values; noted with them: in OCCOCCO.
`CC1CCC(O)(c2ccc(-c3cccs3)s2)CC1` (stereo not drawn) registered an emission maximum of 414 nm.

The same series, now with this note: in c1cc(-c2cccc(-n3c4ccccc4c4ccccc43)c2)cc(-n2c3ccccc3c3ccccc32)c1.
`N#Cc1c(-n2c3ccccc3c3ccccc32)c(-n2c3ccccc3c3ccccc32)c(-n2c3ccccc3c3ccccc32)c(-n2c3ccccc3c3ccccc32)c1-n1c2ccccc2c2ccccc21`: the emission maximum was determined as 486 nm.

The series is the same for the next values; noted with them: in c1ccc2c(c1)c1ccccc1n2-c1ccc(-c2ccc(-n3c4ccccc4c4ccccc43)cc2)cc1.
Consider `CC(C)(C(=O)c1ccc(N2c3ccccc3C(C)(C)c3ccccc32)cc1)C(=O)c1ccc(N2c3ccccc3C(C)(C)c3ccccc32)cc1`, for which the emission maximum came out at 495.97 nm.

Still in this series, the particulars now being: in c1ccccc1.
The compound `Cc1ccc(-c2c3ccc([nH]3)c3nc(c(-c4ccc([N+](=O)[O-])cc4)c4ccc([nH]4)c4ccc([nH]4)c(-c4ccc(C)cc4)c4ccc2o4)C=C3)cc1` yielded an emission maximum of 737 nm.

The same series, now with this note: in c1ccncc1.
`CC1CCC(O)(c2ccc(-c3cccs3)s2)CC1` (stereo not drawn) registered an emission maximum of 416 nm.

Values taken from the Deep4Chem optical property database.
